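Compound exposure: 48 hours, 5 concentrations, 96-well plates. TGI is the concentration that stops growth completely.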
How the values were obtained:
Assay in all cases: NCI tumour cell line growth inhibition, 48 h
786-0 renal = system: 786-0 renal
A549 NSCLC = system: A549 NSCLC
ACHN renal = system: ACHN renal
CAKI-1 renal = system: CAKI-1 renal
CCRF-CEM leukemia = system: CCRF-CEM leukemia
DLD-1 colon = system: DLD-1 colon
DMS 114 small cell lung = system: DMS 114 small cell lung
EKVX NSCLC = system: EKVX NSCLC
HCC-2998 colon = system: HCC-2998 colon
HCT-116 colon = system: HCT-116 colon
HCT-15 colon = system: HCT-15 colon
HL-60(TB) leukemia = system: HL-60(TB) leukemia
HOP-18 NSCLC = system: HOP-18 NSCLC
HOP-62 NSCLC = system: HOP-62 NSCLC
HOP-92 NSCLC = system: HOP-92 NSCLC
HT29 colon = system: HT29 colon
IGROV1 ovarian = system: IGROV1 ovarian
K-562 leukemia = system: K-562 leukemia
KM12 colon = system: KM12 colon
KM20L2 colon = system: KM20L2 colon
LOX IMVI melanoma = system: LOX IMVI melanoma
LXFL 529 NSCLC = system: LXFL 529 NSCLC
M14 melanoma = system: M14 melanoma
M19-MEL melanoma = system: M19-MEL melanoma
MALME-3M melanoma = system: MALME-3M melanoma
MOLT-4 leukemia = system: MOLT-4 leukemia
NCI-H226 lung = system: NCI-H226 lung
NCI-H23 lung = system: NCI-H23 lung
NCI-H460 lung = system: NCI-H460 lung
NCI-H522 lung = system: NCI-H522 lung
OVCAR-3 ovarian = system: OVCAR-3 ovarian
OVCAR-4 ovarian = system: OVCAR-4 ovarian
OVCAR-5 ovarian = system: OVCAR-5 ovarian
OVCAR-8 ovarian = system: OVCAR-8 ovarian
RPMI-8226 leukemia = system: RPMI-8226 leukemia
RXF 393 renal = system: RXF 393 renal
RXF-631 renal = system: RXF-631 renal
SF-268 CNS = system: SF-268 CNS
SF-295 CNS = system: SF-295 CNS
SF-539 CNS = system: SF-539 CNS
SK-MEL-2 melanoma = system: SK-MEL-2 melanoma
SK-MEL-28 melanoma = system: SK-MEL-28 melanoma
SK-MEL-5 melanoma = system: SK-MEL-5 melanoma
SK-OV-3 ovarian = system: SK-OV-3 ovarian
SN12C renal = system: SN12C renal
SNB-19 CNS = system: SNB-19 CNS
SNB-78 CNS = system: SNB-78 CNS
SR leukemia = system: SR leukemia
SW-620 colon = system: SW-620 colon
TK-10 renal = system: TK-10 renal
U251 CNS = system: U251 CNS
UACC-257 melanoma = system: UACC-257 melanoma
UACC-62 melanoma = system: UACC-62 melanoma
UO-31 renal = system: UO-31 renal
XF 498 CNS = system: XF 498 CNS

Measured: TGI

COC(=O)C(=O)C(CC(=O)Nc1c(C)cccc1C)C(=O)OC (stereo not given)
> 100 µM: 786-0 renal | A549 NSCLC | ACHN renal | CAKI-1 renal | CCRF-CEM leukemia | DLD-1 colon | DMS 114 small cell lung | EKVX NSCLC | HCC-2998 colon | HCT-116 colon | HCT-15 colon | HL-60(TB) leukemia | HOP-18 NSCLC | HOP-62 NSCLC | HOP-92 NSCLC | HT29 colon | IGROV1 ovarian | K-562 leukemia | KM12 colon | KM20L2 colon | LOX IMVI melanoma | LXFL 529 NSCLC | M14 melanoma | M19-MEL melanoma | MALME-3M melanoma | MOLT-4 leukemia | NCI-H226 lung | NCI-H23 lung | NCI-H460 lung | NCI-H522 lung | OVCAR-3 ovarian | OVCAR-4 ovarian | OVCAR-5 ovarian | OVCAR-8 ovarian | RPMI-8226 leukemia | RXF 393 renal | RXF-631 renal | SF-268 CNS | SF-295 CNS | SF-539 CNS | SK-MEL-2 melanoma | SK-MEL-28 melanoma | SK-MEL-5 melanoma | SK-OV-3 ovarian | SN12C renal | SNB-19 CNS | SNB-78 CNS | SR leukemia | SW-620 colon | TK-10 renal | U251 CNS | UACC-257 melanoma | UACC-62 melanoma | UO-31 renal | XF 498 CNS
